SMILES strings stand for the structures.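 Test compounds were applied to cells in 96-well plates for 48 hours at 5 doses. TGI: total growth inhibition.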

19 compounds from PubChem BioAssay (NCI) can be followed below.

One experiment has as its system OVCAR-5 ovarian. Briefly: NCI anticancer screen, dose series, 48 h.
The compound `O=C(CN1CCCCC1)Nc1ccc2sc3ccccc3c(=O)c2n1` had a TGI of 38.9 µM.

Regarding `O=C(NC1=NCC(CN2CCN(c3ccccc3)CC2)O1)Nc1ccccc1` (configuration not stated), the TGI was above 100 µM.

`CC(=O)C(=C(c1ccccc1)c1ccccc1)c1ccccc1` returned a TGI above 100 µM.

The compound `COC1(OC)c2no[n+]([O-])c2CCC1O` (configuration not stated) registered a TGI above 100 µM.

With `C=CCNC(=O)NC(=O)CSC1=NNC2(C(=O)N1)c1ccccc1-c1ccccc12`, the TGI is above 10 µM.

Take `O=C1/C(=C/c2cccc(F)c2)CCCc2ccccc21`: the TGI amounted to 28.3 µM.

`Clc1ccc(NCc2nnc(CCCCCCCCc3nnc(CNc4ccc(Cl)cc4)o3)o2)cc1` gave a TGI above 100 µM.

Turning to `O=C(ON=C1c2ccccc2C(Br)C(Br)c2ccccc21)c1cc([N+](=O)[O-])cc([N+](=O)[O-])c1` (configuration not stated), the TGI came out at 43.8 µM.

As for `O=C1C(Cl)C2(CC(/C=C/c3ccccc3Cl)=NN2c2cccc(S(=O)(=O)O)c2)N1c1nc2ccccc2s1` (configuration not stated), the TGI is above 100 µM.

Turning to `O=C(CC(=O)N(C(=O)/C=C\c1ccccc1)c1ccc(Cl)cc1)N1N=C(c2ccccc2)C(N=Nc2cccc([N+](=O)[O-])c2)C1=O` (configuration not stated), the TGI is above 100 µM.

The compound `Cc1cc(=O)[nH]c(-n2[nH]c(C)c(CCO)c2=O)n1` came in with a TGI above 100 µM.

For the compound `CCOC(=O)c1cnc2oc3ccc(O)cc3c2c1C`, the TGI was above 100 µM.

`COC(=O)c1ccc(C)cc1CC1Cc2cc(C)ccc2C1=O` (configuration not stated): the TGI was above 100 µM.

In turn, `NN(CC(=O)O)CC(=O)O` yielded a TGI above 100 µM.

Another experiment relates to HS 578T breast. Briefly: NCI anticancer screen, dose series, 48 h.
As to `CNc1ncnc2c1ncn2C1C=CC(COS(N)(=O)=O)C1` (configuration not stated), the TGI was above 100 µM.

`CCOc1cc(NC(C)=O)ccc1C(=O)NN1C(=O)C(Cl)C1c1ccccc1` (configuration not stated) yielded a TGI of 83.1 µM.

On to `COC1=C(OC)C(=O)C(Cc2c(Cl)nc3sc(C)cn23)=C(C)C1=O`, for which the TGI turned out to be 66.4 µM.

With `CCCCCCCCCCCCCCCCCCNc1ccn(C2OC(COP(=O)(O)OCC3OC(n4cc(F)c(=O)[nH]c4=O)CC3O)C(O)C2O)c(=O)n1` (configuration not stated), the TGI is above 100 µM.

For the compound `O=C(CN1CCCCC1)Nc1ccc2sc3ccccc3c(=O)c2n1`, the TGI amounted to 45.2 µM.

In turn, `CCOC(=O)/C(C#N)=C\c1ccc(N(CCC(=O)O)CCC(=O)O)c(I)c1` returned a TGI above 10 µM.

As for `O=C(NC1=NCC(CN2CCN(c3ccccc3)CC2)O1)Nc1ccccc1` (configuration not stated), the TGI was above 100 µM.

`CC(=O)C(=C(c1ccccc1)c1ccccc1)c1ccccc1` displayed a TGI above 100 µM.

As to `COC1(OC)c2no[n+]([O-])c2CCC1O` (configuration not stated), the TGI is above 100 µM.

As for `C=CCNC(=O)NC(=O)CSC1=NNC2(C(=O)N1)c1ccccc1-c1ccccc12`, the TGI was above 10 µM.

For `O=C1/C(=C/c2cccc(F)c2)CCCc2ccccc21`, the TGI is 28.5 µM.

In turn, `Clc1ccc(NCc2nnc(CCCCCCCCc3nnc(CNc4ccc(Cl)cc4)o3)o2)cc1` gave a TGI above 100 µM.

`O=C(ON=C1c2ccccc2C(Br)C(Br)c2ccccc21)c1cc([N+](=O)[O-])cc([N+](=O)[O-])c1` (configuration not stated) registered a TGI of 61.6 µM.

`O=C1C(Cl)C2(CC(/C=C/c3ccccc3Cl)=NN2c2cccc(S(=O)(=O)O)c2)N1c1nc2ccccc2s1` (configuration not stated): the TGI is above 100 µM.

Consider `O=C(CC(=O)N(C(=O)/C=C\c1ccccc1)c1ccc(Cl)cc1)N1N=C(c2ccccc2)C(N=Nc2cccc([N+](=O)[O-])c2)C1=O` (configuration not stated), for which the TGI came to 75.1 µM.

Take `Cc1cc(=O)[nH]c(-n2[nH]c(C)c(CCO)c2=O)n1`: the TGI is above 100 µM.

The compound `CCOC(=O)c1cnc2oc3ccc(O)cc3c2c1C` displayed a TGI above 100 µM.

`COC(=O)c1ccc(C)cc1CC1Cc2cc(C)ccc2C1=O` (configuration not stated) registered a TGI above 100 µM.

Regarding `NN(CC(=O)O)CC(=O)O`, the TGI is above 100 µM.

For another experiment, the system named is CCRF-CEM leukemia. Briefly: NCI anticancer screen, dose series, 48 h.
On to `CNc1ncnc2c1ncn2C1C=CC(COS(N)(=O)=O)C1` (configuration not stated), for which the TGI is above 100 µM.

As to `CCOc1cc(NC(C)=O)ccc1C(=O)NN1C(=O)C(Cl)C1c1ccccc1` (configuration not stated), the TGI turned out to be 38.6 µM.

`COC1=C(OC)C(=O)C(Cc2c(Cl)nc3sc(C)cn23)=C(C)C1=O`: the TGI turned out to be 8.73 µM.

`CCCCCCCCCCCCCCCCCCNc1ccn(C2OC(COP(=O)(O)OCC3OC(n4cc(F)c(=O)[nH]c4=O)CC3O)C(O)C2O)c(=O)n1` (configuration not stated) came in with a TGI above 49.7 µM.

The compound `O=C(CN1CCCCC1)Nc1ccc2sc3ccccc3c(=O)c2n1` displayed a TGI above 100 µM.

`CCOC(=O)/C(C#N)=C\c1ccc(N(CCC(=O)O)CCC(=O)O)c(I)c1`: the TGI is above 10 µM.

For the compound `O=C(NC1=NCC(CN2CCN(c3ccccc3)CC2)O1)Nc1ccccc1` (configuration not stated), the TGI is above 100 µM.

For `CC(=O)C(=C(c1ccccc1)c1ccccc1)c1ccccc1`, the TGI is above 100 µM.

Take `COC1(OC)c2no[n+]([O-])c2CCC1O` (configuration not stated): the TGI was above 100 µM.

`C=CCNC(=O)NC(=O)CSC1=NNC2(C(=O)N1)c1ccccc1-c1ccccc12` came in with a TGI above 10 µM.

Compound `O=C1/C(=C/c2cccc(F)c2)CCCc2ccccc21` registered a TGI of 34 µM.

For `Clc1ccc(NCc2nnc(CCCCCCCCc3nnc(CNc4ccc(Cl)cc4)o3)o2)cc1`, the TGI is above 100 µM.

`O=C(ON=C1c2ccccc2C(Br)C(Br)c2ccccc21)c1cc([N+](=O)[O-])cc([N+](=O)[O-])c1` (configuration not stated) returned a TGI of 3.65 µM.

Compound `O=C1C(Cl)C2(CC(/C=C/c3ccccc3Cl)=NN2c2cccc(S(=O)(=O)O)c2)N1c1nc2ccccc2s1` (configuration not stated) showed a TGI of 33.9 µM.

`O=C(CC(=O)N(C(=O)/C=C\c1ccccc1)c1ccc(Cl)cc1)N1N=C(c2ccccc2)C(N=Nc2cccc([N+](=O)[O-])c2)C1=O` (configuration not stated): the TGI amounted to 38.5 µM.

`Cc1cc(=O)[nH]c(-n2[nH]c(C)c(CCO)c2=O)n1` had a TGI above 100 µM.

As for `CCOC(=O)c1cnc2oc3ccc(O)cc3c2c1C`, the TGI is above 100 µM.

Regarding `COC(=O)c1ccc(C)cc1CC1Cc2cc(C)ccc2C1=O` (configuration not stated), the TGI is above 100 µM.

Compound `NN(CC(=O)O)CC(=O)O` returned a TGI above 100 µM.

Another experiment has as its system SK-MEL-5 melanoma. Briefly: NCI anticancer screen, dose series, 48 h.
Consider `CNc1ncnc2c1ncn2C1C=CC(COS(N)(=O)=O)C1` (configuration not stated), for which the TGI is above 100 µM.

Compound `CCOc1cc(NC(C)=O)ccc1C(=O)NN1C(=O)C(Cl)C1c1ccccc1` (configuration not stated) returned a TGI of 23.4 µM.

Take `COC1=C(OC)C(=O)C(Cc2c(Cl)nc3sc(C)cn23)=C(C)C1=O`: the TGI amounted to 23.9 µM.

Compound `CCCCCCCCCCCCCCCCCCNc1ccn(C2OC(COP(=O)(O)OCC3OC(n4cc(F)c(=O)[nH]c4=O)CC3O)C(O)C2O)c(=O)n1` (configuration not stated) had a TGI above 100 µM.

In turn, `O=C(CN1CCCCC1)Nc1ccc2sc3ccccc3c(=O)c2n1` came in with a TGI of 36.1 µM.

Consider `CCOC(=O)/C(C#N)=C\c1ccc(N(CCC(=O)O)CCC(=O)O)c(I)c1`, for which the TGI was above 10 µM.

In the case of `O=C(NC1=NCC(CN2CCN(c3ccccc3)CC2)O1)Nc1ccccc1` (configuration not stated), the TGI was above 100 µM.

The compound `CC(=O)C(=C(c1ccccc1)c1ccccc1)c1ccccc1` returned a TGI above 100 µM.

In turn, `COC1(OC)c2no[n+]([O-])c2CCC1O` (configuration not stated) yielded a TGI above 100 µM.

Regarding `C=CCNC(=O)NC(=O)CSC1=NNC2(C(=O)N1)c1ccccc1-c1ccccc12`, the TGI was above 10 µM.

As to `Clc1ccc(NCc2nnc(CCCCCCCCc3nnc(CNc4ccc(Cl)cc4)o3)o2)cc1`, the TGI is above 100 µM.

`O=C(ON=C1c2ccccc2C(Br)C(Br)c2ccccc21)c1cc([N+](=O)[O-])cc([N+](=O)[O-])c1` (configuration not stated) came in with a TGI of 30.7 µM.

Compound `O=C1C(Cl)C2(CC(/C=C/c3ccccc3Cl)=NN2c2cccc(S(=O)(=O)O)c2)N1c1nc2ccccc2s1` (configuration not stated) returned a TGI above 100 µM.

On to `Cc1cc(=O)[nH]c(-n2[nH]c(C)c(CCO)c2=O)n1`, for which the TGI is above 100 µM.

As to `CCOC(=O)c1cnc2oc3ccc(O)cc3c2c1C`, the TGI was above 100 µM.
